Our source for the IC50 values is publication PMC12646670, “Fatty acid transport protein 2 inhibition enhances glucose tolerance through α cell–mediated GLP-1 secretion” (The Journal of Clinical Investigation, 2025).

The target in this assay is T1, FATP2 (Mus musculus, UniProt O35488).
T1 construct: gene Slc27a2; endogenous full-length FATP2 in native mouse αTC1-6 pancreatic α cell line (ATCC)
Kind of assay: BODIPY-labelled C18 fatty acid uptake (QBT fluorescence assay). Particulars: native αTC1-6 cells; 1 h preincubation, 37°C; 2.5 μM BODIPY-C18 fatty acid with 0.2% fatty acid-free albumin; uptake read at 60 s. In kind it is cell-based. From the text:
BODIPY-labelled C18 fatty acid uptake (QBT fluorescence assay) on FATP2 | fatty acid uptake was blocked by the FATP2 inhibitor lipofermata

T1 sequence (O35488 whole entry): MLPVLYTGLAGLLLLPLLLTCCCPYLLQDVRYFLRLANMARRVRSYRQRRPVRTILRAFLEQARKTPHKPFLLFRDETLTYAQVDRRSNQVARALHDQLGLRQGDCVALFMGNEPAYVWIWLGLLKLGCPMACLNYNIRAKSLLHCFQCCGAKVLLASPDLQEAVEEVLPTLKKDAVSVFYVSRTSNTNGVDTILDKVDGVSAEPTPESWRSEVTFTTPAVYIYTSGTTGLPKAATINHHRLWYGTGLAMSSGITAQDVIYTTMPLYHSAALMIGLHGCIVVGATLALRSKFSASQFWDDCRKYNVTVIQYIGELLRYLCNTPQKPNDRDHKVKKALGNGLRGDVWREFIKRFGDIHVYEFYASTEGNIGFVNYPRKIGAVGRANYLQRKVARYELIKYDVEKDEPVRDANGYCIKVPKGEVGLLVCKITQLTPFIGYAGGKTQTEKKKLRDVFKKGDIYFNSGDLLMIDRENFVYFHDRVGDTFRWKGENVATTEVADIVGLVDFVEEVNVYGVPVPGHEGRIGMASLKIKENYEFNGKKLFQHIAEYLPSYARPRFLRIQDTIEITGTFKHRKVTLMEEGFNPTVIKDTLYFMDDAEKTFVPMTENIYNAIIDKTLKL

What is called IC50 is the concentration needed to halve the response being measured. Higher therefore signals lower potency. Molecule `O=C1Nc2ccc(Br)cc2C12NN=C(c1ccccc1)S2` (stereo not shown) [lipofermata, 5-bromo-5′-phenylspiro[3H-1,3,4-thiadiazole-2,3′-indoline]-2-1] showed a 50% inhibitory concentration (IC50) of 5.4 µM.
